pKi: −log10 of the molar value.
target: human orexin 2 receptor (Homo sapiens (Human), UniProt O43614); test: Human orexin 2 receptor radioligand binding ([3H]EMPA competition, HEK293 cells); conditions: HEK293 cells expressing human orexin-2 receptor, read-out: OR 2 Ki
Sequence (O43614 whole entry): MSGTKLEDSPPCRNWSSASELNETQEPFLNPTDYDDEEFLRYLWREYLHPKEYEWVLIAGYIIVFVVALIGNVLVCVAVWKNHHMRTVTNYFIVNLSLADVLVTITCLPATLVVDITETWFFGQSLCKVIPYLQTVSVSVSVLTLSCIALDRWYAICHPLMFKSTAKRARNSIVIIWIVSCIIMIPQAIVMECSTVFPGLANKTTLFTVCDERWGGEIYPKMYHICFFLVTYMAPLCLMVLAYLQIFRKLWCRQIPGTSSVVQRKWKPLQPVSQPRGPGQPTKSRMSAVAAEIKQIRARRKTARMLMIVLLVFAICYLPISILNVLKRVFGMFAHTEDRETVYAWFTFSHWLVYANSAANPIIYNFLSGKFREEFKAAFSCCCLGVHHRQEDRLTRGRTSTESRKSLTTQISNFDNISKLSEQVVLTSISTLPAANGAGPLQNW

SMILES | pKi
Cc1cc(C)nc(N2CC3CN(C(=O)c4c(F)cccc4-c4cncs4)CC3C2)n1 (centres unmarked) [Example 487, 2-(4,6-Dimethylpyrimidin-2-yl)-5-{[2-fluoro-6-(1,3-thiazol-5-yl)phenyl]carbonyl}octahydropyrrolo[3,4-c]pyrrole] | 7.27
CCCOc1ccc(C)nc1C(=O)N1CC2CN(c3cc(N(C)C)nc(C)n3)CC2C1 (centres unmarked) [Example 424, N,N,2-Trimethyl-6-{5-[(6-methyl-3-propoxypyridin-2-yl)carbonyl]hexahydropyrrolo[3,4-c]pyrrol-2(1H)-yl}pyrimidin-4-amine] | 5.94
Cc1ccc(-c2ncc(C)o2)c(C(=O)N2CC3CN(c4cc(N(C)C)nc(C)n4)CC3C2)n1 (centres unmarked) [Example 429, N,N,2-Trimethyl-6-[5-{[6-methyl-3-(5-methyl-1,3-oxazol-2-yl)pyridin-2-yl]carbonyl}hexahydropyrrolo[3,4-c]pyrrol-2(1H)-yl]pyrimidin-4-amine] | 6.12
Cc1ccnc(-c2cccc(F)c2C(=O)N2CC3CN(c4nc(C)cc(C)n4)CC3C2)c1 (centres unmarked) [Example 489, 2-(4,6-Dimethylpyrimidin-2-yl)-5-{[2-fluoro-6-(4-methylpyridin-2-yl)phenyl]carbonyl}octahydropyrrolo[3,4-c]pyrrole] | 7.35
CSc1nccc(-c2cccc(F)c2C(=O)N2CC3CN(c4nc(C)cc(C)n4)CC3C2)n1 (centres unmarked) [Example 485, 2-(4,6-Dimethylpyrimidin-2-yl)-5-({2-fluoro-6-[2-(methylsulfanyl)pyrimidin-4-yl]phenyl}carbonyl)octahydropyrrolo[3,4-c]pyrrole] | 7.08
Cc1nc(N(C)C)cc(N2CC3CN(C(=O)c4c(F)cccc4-n4nccn4)CC3C2)n1 (centres unmarked) [Example 418, 6-[5-{[2-Fluoro-6-(2H-1,2,3-triazol-2-yl)phenyl]carbonyl}hexahydropyrrolo[3,4-c]pyrrol-2(1H)-yl]-N,N,2-trimethylpyrimidin-4-amine] | 7.26
Cc1cc(C)nc(N2CC3CN(C(=O)c4nc(C)ccc4-c4ncc(C)o4)CC3C2)n1 (centres unmarked) [Example 422, 2-(4,6-Dimethylpyrimidin-2-yl)-5-{[6-methyl-3-(5-methyl-1,3-oxazol-2-yl)pyridin-2-yl]carbonyl}octahydropyrrolo[3,4-c]pyrrole] | 5.98
O=C(c1cccc(F)c1-c1[nH]ncc1F)N1CC2CN(c3cnc4cc(F)c(F)cc4n3)CC2C1 (centres unmarked) [Example 456, 6,7-Difluoro-2-[5-{[3-fluoro-2-(4-fluoro-1H-pyrazol-5-yl)phenyl]carbonyl}hexahydropyrrolo[3,4-c]pyrrol-2(1H)-yl]quinoxaline] | 7.51
Cc1nc(N(C)C)cc(N2CC3CN(C(=O)c4c(F)cccc4-c4ncccn4)CC3C2)n1 (centres unmarked) [Example 426, 6-{5-[(2-Fluoro-6-pyrimidin-2-ylphenyl)carbonyl]hexahydropyrrolo[3,4-c]pyrrol-2(1H)-yl}-N,N,2-trimethylpyrimidin-4-amine] | 7.44
Cc1cc(C)nc(N2CC3CN(C(=O)c4nc(C)ccc4-n4ccnn4)CC3C2)n1 (centres unmarked) [Example 439, 2-(4,6-Dimethylpyrimidin-2-yl)-5-{[6-methyl-3-(1H-1,2,3-triazol-1-yl)pyridin-2-yl]carbonyl}octahydropyrrolo[3,4-c]pyrrole] | 5.00
COc1cccnc1-c1c(F)cccc1C(=O)N1CC2CN(c3cnc4cc(F)c(F)cc4n3)CC2C1 (centres unmarked) [Example 453, 6,7-Difluoro-2-[5-{[3-fluoro-2-(3-methoxypyridin-2-yl)phenyl]carbonyl}hexahydropyrrolo[3,4-c]pyrrol-2(1H)-yl]quinoxaline] | 7.33
Cc1nc(N(C)C)cc(N2CC3CN(C(=O)c4cccc(F)c4-n4nccn4)CC3C2)n1 (centres unmarked) [Example 416, 6-[5-{[3-Fluoro-2-(2H-1,2,3-triazol-2-yl)phenyl]carbonyl}hexahydropyrrolo[3,4-c]pyrrol-2(1H)-yl]-N,N,2-trimethylpyrimidin-4-amine] | 6.79

Now those with a higher pKi, led by results:

pKi | SMILES
7.64 | Cc1cc(C)nc(N2CC3CN(C(=O)c4cccc(F)c4-c4nnc[nH]4)CC3C2)n1 (centres unmarked) [Example 432, 2-(4,6-Dimethylpyrimidin-2-yl)-5-{[3-fluoro-2-(1H-1,2,4-triazol-5-yl)phenyl]carbonyl}octahydropyrrolo[3,4-c]pyrrole]
7.62 | COc1ccc(C(=O)N2CC3CN(c4nc(C)cc(CO)n4)CC3C2)c(-n2nccn2)c1 (centres unmarked) [Example 435, {2-[5-{[4-Methoxy-2-(2H-1,2,3-triazol-2-yl)phenyl]carbonyl}hexahydropyrrolo[3,4-c]pyrrol-2(1H)-yl]-6-methylpyrimidin-4-yl}methanol]
7.96 | COc1ccnc(-c2cccc(F)c2C(=O)N2CC3CN(c4nc(C)cc(C)n4)CC3C2)n1 (centres unmarked) [Example 483, 2-(4,6-Dimethylpyrimidin-2-yl)-5-{[2-fluoro-6-(4-methoxypyrimidin-2-yl)phenyl]carbonyl}octahydropyrrolo[3,4-c]pyrrole]
7.59 | Cc1nc(N2CC3CN(C(=O)c4ncc(Cl)cc4-n4nccn4)CC3C2)nc(C)c1C (centres unmarked) [Example 442, 2-{[5-Chloro-3-(2H-1,2,3-triazol-2-yl)pyridin-2-yl]carbonyl}-5-(4,5,6-trimethylpyrimidin-2-yl)octahydropyrrolo[3,4-c]pyrrole]
7.72 | Cc1cc(C)nc(N2CC3CN(C(=O)c4c(F)cccc4-c4ncc(C)s4)CC3C2)n1 (centres unmarked) [Example 477, 2-(4,6-Dimethylpyrimidin-2-yl)-5-{[2-fluoro-6-(5-methyl-1,3-thiazol-2-yl)phenyl]carbonyl}octahydropyrrolo[3,4-c]pyrrole]
7.54 | O=C(c1cccc(F)c1-c1ncco1)N1CC2CN(c3cnc4cc(F)c(F)cc4n3)CC2C1 (centres unmarked) [Example 451, 6,7-Difluoro-2-[5-{[3-fluoro-2-(1,3-oxazol-2-yl)phenyl]carbonyl}hexahydropyrrolo[3,4-c]pyrrol-2(1H)-yl]quinoxaline]
7.59 | Cc1nc(N2CC3CN(C(=O)c4cccc(F)c4-c4ncco4)CC3C2)ncc1F (centres unmarked) [Example 496, 2-(5-Fluoro-4-methylpyrimidin-2-yl)-5-{[3-fluoro-2-(1,3-oxazol-2-yl)phenyl]carbonyl}octahydropyrrolo[3,4-c]pyrrole]
7.62 | Cc1cc(C)nc(N2CC3CN(C(=O)c4c(F)cccc4-c4ncccc4F)CC3C2)n1 (centres unmarked) [Example 481, 2-(4,6-Dimethylpyrimidin-2-yl)-5-{[2-fluoro-6-(3-fluoropyridin-2-yl)phenyl]carbonyl}octahydropyrrolo[3,4-c]pyrrole]
7.80 | Cc1cc(C)nc(N2CC3CN(C(=O)c4c(F)cccc4-c4ncco4)CC3C2)n1 (centres unmarked) [Example 491, 2-(4,6-Dimethylpyrimidin-2-yl)-5-{[2-fluoro-6-(1,3-oxazol-2-yl)phenyl]carbonyl}octahydropyrrolo[3,4-c]pyrrole]
7.74 | [2H]c1c(C([2H])([2H])[2H])nc(N2CC3CN(C(=O)c4cccc(F)c4-c4ncccn4)CC3C2)nc1C([2H])([2H])[2H] (centres unmarked) [Example 431, 2-{4,6-Bis[(^2H3)methyl](^2H)pyrimidin-2-yl}-5-[(3-fluoro-2-pyrimidin-2-ylphenyl)carbonyl]octahydropyrrolo[3,4-c]pyrrole]
7.59 | O=C(c1cccc(F)c1-c1ccccn1)N1CC2CN(c3cnc4cc(F)c(F)cc4n3)CC2C1 (centres unmarked) [Example 452, 6,7-Difluoro-2-{5-[(3-fluoro-2-pyridin-2-ylphenyl)carbonyl]hexahydropyrrolo[3,4-c]pyrrol-2(1H)-yl}quinoxaline]
